Data published in patent US20220098320A1, “SENOLYTIC CAR-T CELLS TARGETING UPAR, A CELL SURFACE AND SECRETED […]” (MEMORIAL SLOAN KETTERING CANCER CENTER, priority 2019, published 2022).

Experiments:
[1] = tested on: suPAR; test: CCl4-induced liver fibrosis: plasma suPAR; type: in vivo; settings: CCl4-treated mice vs untreated controls; FIGS. 5B and 16D
Description: In vivo induction of liver fibrosis. C57BL/6J mice were treated twice a week with 12 consecutive intraperitoneal (i.p.) injections of 1 ml/kg carbon tetrachloride (CCl4) to induce liver fibrosis. For murine CAR T cell studies, cyclophosphamide (200 mg/kg) was administered 24 hours before T cell injection. Mice received 3×10^6 CAR^+ T cells or untransduced T cells and CCl4 was continuously administered at the same dose and interval after T cell injection until day 20 post CAR injection. Animals were sacrificed 48-72 h after the last CCl4 injection. NSG mice were treated twice a week with 8 consecutive i.p. injections of 1 ml/kg CCl4 to induce liver fibrosis. For human CAR T cell studies, mice received 0.5×10^6 CAR T cells or untransduced T cells and CCl4 was continued once a week after CAR T injection until day 10 post CAR administration, when animals were sacrificed 48-72 h after the last CCl4 injection. Venous blood was collected by facial vein puncture.
(§1) Detection of suPAR levels. suPAR levels from cell culture supernatant of murine plasma were evaluated by enzyme-linked immunosorbent assay (ELISA) according to the manufacturer's protocol (R&D systems, DY531 (mouse) or DY807 (human)).

[2] = tested on: suPAR; test: doxorubicin-induced senescence in vivo: plasma suPAR by ELISA; set-up: species or system C57BL/6J mice; settings: doxorubicin i.p. day 0 and day 10; blood at days 10 and 20; FIG. 7D
Description: In vivo induction of doxorubicin-Induced senescence. […] Venous blood was collected by facial vein puncture at days 10 and 20 after initial doxorubicin administration. Detection of suPAR levels. suPAR levels from cell culture supernatant of murine plasma were evaluated by enzyme-linked immunosorbent assay (ELISA) according to the manufacturer's protocol (R&D systems, DY531 (mouse) or DY807 (human)).

[3] = tested on: suPAR; test: bleomycin-induced lung fibrosis: plasma suPAR; type: in vivo, NSG mice; settings: intratracheal bleomycin; FIGS. 9C-9E
Description: as §1

In the case of `ClC(Cl)(Cl)Cl` [CCl4, carbon tetrachloride], the “plasma suPAR levels” value [1] is reported as “elevation of plasma suPAR levels relative to untreated controls”.
With `COc1cccc2c1C(=O)c1c(O)c3c(c(O)c1C2=O)C[C@@](O)(C(=O)CO)C[C@@H]3O[C@H]1C[C@H](N)[C@H](O)[C@H](C)O1` [doxorubicin] the “plasma levels of suPAR” value [2] was “time-dependent and dose-dependent correlation with the plasma levels of suPAR”.
For bleomycin, the “plasma levels of suPAR” value [3] was “Higher levels of suPAR”.
